Measured values as given in PMC7596714, “Acute EPA-induced learning and memory impairment in mice is prevented by DHA” (Nature Communications, 2020).

Target: T1, 5-HT6R (5-hydroxytryptamine6 receptor, serotonin 6 receptor) (Homo sapiens, UniProt P50406)
T1 construct: gene HTR6
Assay: radioligand competition with [3H]-LSD; supported by cAMP accumulation in […] cells with human 5-HT6R plasmid
Type: binding

T1 sequence (P50406 whole entry): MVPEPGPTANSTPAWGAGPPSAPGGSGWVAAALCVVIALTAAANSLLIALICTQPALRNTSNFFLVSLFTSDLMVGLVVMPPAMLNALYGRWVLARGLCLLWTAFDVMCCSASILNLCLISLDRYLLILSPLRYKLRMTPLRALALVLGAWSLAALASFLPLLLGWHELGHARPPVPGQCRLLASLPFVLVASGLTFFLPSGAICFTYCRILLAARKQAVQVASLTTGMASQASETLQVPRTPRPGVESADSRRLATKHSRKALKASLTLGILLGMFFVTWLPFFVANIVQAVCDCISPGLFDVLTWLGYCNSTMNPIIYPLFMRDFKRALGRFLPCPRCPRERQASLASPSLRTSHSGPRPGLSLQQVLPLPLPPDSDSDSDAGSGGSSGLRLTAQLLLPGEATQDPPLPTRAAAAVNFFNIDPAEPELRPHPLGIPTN

CC/C=C\C/C=C\C/C=C\C/C=C\C/C=C\CCCC(=O)O [EPA, Eicosapentaenoic acid]
IC50: 26.6 µM
